# Literature values as cited in US20040235766A1 (priority 2001, published 2004).
# Molecular target: DnaX protein (Escherichia coli, UniProt P06710)
# Settings: read-out: dissociation constant
# DnaX protein, sequence (P06710 whole entry): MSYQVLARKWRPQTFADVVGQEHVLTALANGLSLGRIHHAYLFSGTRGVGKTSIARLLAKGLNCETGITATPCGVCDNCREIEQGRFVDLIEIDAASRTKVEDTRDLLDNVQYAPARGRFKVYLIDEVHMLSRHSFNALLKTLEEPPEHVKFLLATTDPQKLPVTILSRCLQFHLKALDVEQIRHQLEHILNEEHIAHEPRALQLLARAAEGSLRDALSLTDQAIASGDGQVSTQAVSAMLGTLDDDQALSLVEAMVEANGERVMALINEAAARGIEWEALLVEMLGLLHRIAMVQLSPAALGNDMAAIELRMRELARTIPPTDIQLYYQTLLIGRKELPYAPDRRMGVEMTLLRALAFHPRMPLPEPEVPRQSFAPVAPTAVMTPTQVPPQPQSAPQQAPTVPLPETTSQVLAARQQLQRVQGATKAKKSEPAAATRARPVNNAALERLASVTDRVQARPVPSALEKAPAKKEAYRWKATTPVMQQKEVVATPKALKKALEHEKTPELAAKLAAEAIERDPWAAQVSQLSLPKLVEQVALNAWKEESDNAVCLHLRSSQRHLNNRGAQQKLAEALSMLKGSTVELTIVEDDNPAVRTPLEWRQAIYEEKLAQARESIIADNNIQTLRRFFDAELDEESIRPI
smiles,measurement,value
Nc1ncnc2c1ncn2[C@@H]1O[C@H](COP(=O)(O)OP(=O)(O)OP(=O)(O)O)[C@@H](O)[C@H]1O [ATP],Kd,~2000 nM
